Laboratory results: patent US20130281313A1, “PROGNOSTIC AND/OR PREDICTIVE BIOMARKERS AND BIOLOGICAL APPLICATIONS THEREOF” (INSTITUT GUSTAVE ROUSSY, priority 2010, published 2013)

Key:
Assay type in all cases: cell-based, human
A549 cells [1] = test: Targeted metabolomic studies (ATP, ADP, AMP, GSH; RRLC-MS); conditions: A549 cells, 24 h
Description: A549 cells were left untreated or treated with 25 μM CDDP alone or in combination with 5 mM PN, for 24 h. Thereafter, both attached (living) and detached (dying/dead) cells were harvested, washed once in cold PBS and pelleted (800 G for 5 min). Pellets were resuspended in 200 μL deionized water, briefly vortexed and sonicated. 800 μl ice-cold methanol was added, and samples were kept in ice for 15 min, vortexed and centrifuged at 13,000 G for 10 min at 4° C. Supernatants were dried in a SpeedVac drier (Thermo Scientific-Pierce) and stored at −80° C. until analysis. Pellets were resuspended in 150 μL 98:2 water/acetonitrile immediately before analytical determinations (see below).
ATP, ADP, AMP and GSH were quantified on a Rapid Resolution Liquid Chromatography (RRLC) 1200SL system coupled to a 6410 Triple Quadripole (QQQ) mass spectrometer (both from Agilent Technologies). For nucleotides, RRLC was performed on 150×2.1 mm, 3.5 μM Eclipse Plus columns (Agilent Technologies) with water containing 4 mM dimethylhexylamine (DMHA) plus 0.01% (v/v) acetic acid in channel A and acetonitrile in channel B, in gradient mode at a flow rate of 0.2 mL/min: t=0 min 2% B; t=9 min 32% B; t=10 min 95% B; T=12 min 95% B, re-equilibration time=6 min. Mass spectrometry was performed in positive electrospray ionization mode at +4 kV on the QQQ system operating in MRM mode. MRM transitions were optimized with direct infusions of ATP, ADP, and AMP standards with direct infusion, and four transitions were recorded for each compounds. Parent ions were adduct ions of DMHA and also proton adducts:
For GSH, RRLC was performed on a 150×2.1 mm, 3.5 μM Stable Bond AQ column (Agilent Technologies) with water containing 0.2% (v/v) acetic acid in channel A and methanol in channel B, in gradient mode at a flow rate of 0.3 mL/min: t=0 min 2% B; t=8 min 95% B; t=9 min 95% B; re-equilibration time=6 min. Mass spectrometry was performed as above. MRM transitions were optimized with direct infusion of GSH standards.
Data collection and analysis were performed with the MassHunter software (Agilent Technologies).

A549 cells [2] = test: Cell cycle distribution (PI staining, cytofluorometry); conditions: 10 μM CDDP alone or with PN and/or NAC
Description: To measure apoptosis-related parameters, living cells were labeled for 30 min at +37° C. with 40 nM 3,3′dihexyloxalocarbocyanine iodide (DiOC6(3), from Molecular Probes-Invitrogen, Eugene, USA), which quantifies the mitochondrial transmembrane potential (Δψm), plus 1 μg/mL propidium iodide (PI), which only accumulates in cells with ruptured plasma membrane {Galluzzi, 2009; Galluzzi, 2008; Galluzzi, 2007}. To assess cell cycle distribution, cells were collected, fixed by gentle vortexing in ice-cold 80% (v/v) ethanol (Carlo Erba Reagents, Milano, Italy) and stained with 50 μg/mL PI in 0.1% (w/v) D-glucose in PBS supplemented with 1 μg/mL (w/v) RNAse A {Mondragon, 2009; Mouhamad, 2007}. All cytofluorometric determinations were carried out a FACSCalibur or a FACScan cytofluorometer (BD Biosciences, San Jose, USA) equipped with a 70 μm nozzle.
First line statistical analysis of cytofluorometric results was performed by using the CellQuest™ software (BD Biosciences), by gating on the events characterized by normal forward scatter and side scatter parameters. Apoptosis- and cell cycle-related data were further analyzed with Microsoft Excel (Microsoft Co., Redmond, USA) and statistical significance was assessed by means of two-tailed Student's t test (p<0.05).

[3] = tested on: TP53 (phospho-Ser15, phospho-Ser46), caspase-3, caspase-9; test: Immunoblotting of the intrinsic apoptosis pathway; conditions: A549 cells, sub-apoptotic (25 μM) CDDP in the presence of PN
Description: For the preparation of total protein extracts A549 cells were washed with cold PBS and lysed in a buffer containing 1% NP40, 20 mM HEPES (pH 7.9), 10 mM KCl, 1 mM EDTA, 10% glycerol, 1 mM orthovanadate, 1 mM PMSF, 1 mM dithiothreitol, 10 μg/mL aprotinin, 10 μg/mL leupeptin, and 10 μg/mL pepstatin, according to established protocols {Zermati, 2007}. […]

SMILES	intracellular levels of GSH (A549 cells [1]; 25 μM CDDP)	cell cycle arrest induced by CDDP (A549 cells [2])	activating phosphorylation of TP53 on serines 15 and 46 [3]	activation of caspases-3 and -9 [3]	Atkinson's energy charge (A549 cells [1]; 25 μM CDDP and 5 mM PN in combination, not present with either compound alone)	CDDP-induced decrease in GSH and redox-relevant metabolites (carnitine, acetylcarnitine, propionylcarnitine) (A549 cells [1]; 25 μM CDDP with 5 mM PN)
N.N.[Cl][Pt][Cl] [CDDP, cis-diammineplatinum(II) dichloride]	a decrease in the intracellular levels of GSH	–	–	–	–	–
Cc1ncc(CO)c(CO)c1O [PN, pyridoxine]	–	not affected by the presence of PN	an increased activating phosphorylation of TP53 on serines 15 and 46	an increased activation of caspases-3 and -9	exhibited a bioenergetic defect	largely exacerbated by PN
